The assay concerns the target T1, CatA (PPO2; catalase; His6-tagged CatA) (Aeromonas media, UniProt A0AAE7AJ24).
T1 construct: gene E4188_09760; full ORF (1,449 bp) in pET-26b(+) NdeI/XhoI, His6-tagged, expressed in E. coli BL21(DE3), Ni-NTA; 55 kDa peak by gel filtration
The experiment in a line: native-PAGE activity staining of purified protein. In kind it is biochemical. As to conditions: 5 mM L-DOPA, 50 mM Tris-HCl pH 8.0, 30 °C, 30 min; qualitative.

T1 sequence (A0AAE7AJ24 entry or part of it): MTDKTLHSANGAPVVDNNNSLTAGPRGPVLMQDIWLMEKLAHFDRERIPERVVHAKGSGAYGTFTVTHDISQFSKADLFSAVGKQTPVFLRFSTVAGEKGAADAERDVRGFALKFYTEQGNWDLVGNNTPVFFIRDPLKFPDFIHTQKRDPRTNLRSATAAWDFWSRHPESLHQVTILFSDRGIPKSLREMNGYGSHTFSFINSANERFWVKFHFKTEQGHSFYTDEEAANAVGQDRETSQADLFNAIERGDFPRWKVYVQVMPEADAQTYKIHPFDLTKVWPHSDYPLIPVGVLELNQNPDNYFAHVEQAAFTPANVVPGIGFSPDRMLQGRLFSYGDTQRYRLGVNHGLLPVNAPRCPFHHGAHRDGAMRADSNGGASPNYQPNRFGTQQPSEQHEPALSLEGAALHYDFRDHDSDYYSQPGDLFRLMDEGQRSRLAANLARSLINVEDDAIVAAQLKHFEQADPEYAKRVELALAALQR

For the compound `N[C@@H](Cc1ccc(O)c(O)c1)C(=O)O` [L-DOPA, L-3,4-dihydroxyphenylalanine], the “native-PAGE activity staining of purified protein” value was “All His6-tagged proteins exhibited both catalase and PPO activity”.

For the origin of these results see paper PMC5633740, “Identification of YfiH and the Catalase CatA As Polyphenol Oxidases of Aeromonas media and CatA as a Regulator of Pigmentation by Its Peroxyl Radical Scavenging Capacity” (Frontiers in Microbiology, 2017).
